Data published in US20200245660A1, “AGROCHEMICAL-FREE SIRAITIA GROSVENORII EXTRACT, AND METHOD FOR PREPARING SAME” (priority 2015, published 2020).
Read-outs that look alike come from different tables or passages of the source.

How the values were obtained:
[1] = cited from earlier work
physchem = assay type: physicochemical; details: LogPow
Protocol: These agrochemicals are each a compound having a distribution coefficient (LogPow) of 1.71 or more. Herein, the distribution coefficient of a target compound specifically means the 1-octanol/water distribution coefficient (LogPowow) thereof. When the target compound is added into two solvent phases (of 20 to 25° C.) of 1-octanol and water to make the two phases into an equilibrium state, the distribution coefficient more specifically means the concentration ratio of the compound between the two phases (1-octanol/water). The distribution coefficient may be gained by a flask method or an HPLC method. The distribution coefficient is a physicochemical index representing the hydrophobicity (solubility into lipid) of the compound. As the compound is higher in distribution coefficient, the compound is higher in hydrophobicity. It is known that as the compound is higher in hydrophobicity, the compound is higher in storability in a living body and is also stronger in toxicity. Thus, it can be stated that as the compound is higher in distribution coefficient, the compound is an agrochemical stronger in toxicity.
For reference, out of the six, about dimethomorph, tebuconazole, difenoconazole, metalaxyl, and metalaxyl M, the respective LogPow values are shown below. […]

Structure (SMILES): CC1COC(Cn2cncn2)(c2ccc(Oc3ccc(Cl)cc3)cc2Cl)O1 (centres unmarked) [Difenoconazole, difenoconazole]
- LogPow ([1]; 25 °C, Flask method): 4.4

Structure (SMILES): COCC(=O)N(c1c(C)cccc1C)[C@H](C)C(=O)OC [Metalaxyl M, metalaxyl M]
- LogPow ([1]; 25 °C, HPLC method): 1.71

Structure (SMILES): COCC(=O)N(c1c(C)cccc1C)C(C)C(=O)OC (centres unmarked) [Metalaxyl, metalaxyl]
- LogPow ([1]; 25 °C, Flask method): 1.75

Structure (SMILES): CC(C)(C)C(O)(CCc1ccc(Cl)cc1)Cn1cncn1 (centres unmarked) [Tebuconazole, tebuconazole]
- LogPow ([1]; 20 °C, Flask method): 3.7

Structure (SMILES): CC(C)(C)C(O)C(Oc1ccc(Cl)cc1)n1cncn1 (centres unmarked) [Triadimenol, triadimenol]
- chromatographic logP (physchem): ~2.96
